Test results from PMC9825622, “Leveraging molecular structure and bioactivity with chemical language models for de novo drug design” (Nature Communications, 2023).
pIC50, pKd: −log10 of the molar value.

Legend:
[1] = biological target: T1, PI3Kγ (Homo sapiens, UniProt P48736); assay: KINOMEscan biochemical kinase binding assay (Kd determination); settings: for experimentally determined binding constant Kd: Fig. 4, commercially available compounds, absence of a value (−) = no observed binding; for pKd: average of N = 2 independent experiments
T1 construct: purchased Eurofins Discovery (KINOMEscan, fee-for-service)
T1 sequence (P48736 whole entry): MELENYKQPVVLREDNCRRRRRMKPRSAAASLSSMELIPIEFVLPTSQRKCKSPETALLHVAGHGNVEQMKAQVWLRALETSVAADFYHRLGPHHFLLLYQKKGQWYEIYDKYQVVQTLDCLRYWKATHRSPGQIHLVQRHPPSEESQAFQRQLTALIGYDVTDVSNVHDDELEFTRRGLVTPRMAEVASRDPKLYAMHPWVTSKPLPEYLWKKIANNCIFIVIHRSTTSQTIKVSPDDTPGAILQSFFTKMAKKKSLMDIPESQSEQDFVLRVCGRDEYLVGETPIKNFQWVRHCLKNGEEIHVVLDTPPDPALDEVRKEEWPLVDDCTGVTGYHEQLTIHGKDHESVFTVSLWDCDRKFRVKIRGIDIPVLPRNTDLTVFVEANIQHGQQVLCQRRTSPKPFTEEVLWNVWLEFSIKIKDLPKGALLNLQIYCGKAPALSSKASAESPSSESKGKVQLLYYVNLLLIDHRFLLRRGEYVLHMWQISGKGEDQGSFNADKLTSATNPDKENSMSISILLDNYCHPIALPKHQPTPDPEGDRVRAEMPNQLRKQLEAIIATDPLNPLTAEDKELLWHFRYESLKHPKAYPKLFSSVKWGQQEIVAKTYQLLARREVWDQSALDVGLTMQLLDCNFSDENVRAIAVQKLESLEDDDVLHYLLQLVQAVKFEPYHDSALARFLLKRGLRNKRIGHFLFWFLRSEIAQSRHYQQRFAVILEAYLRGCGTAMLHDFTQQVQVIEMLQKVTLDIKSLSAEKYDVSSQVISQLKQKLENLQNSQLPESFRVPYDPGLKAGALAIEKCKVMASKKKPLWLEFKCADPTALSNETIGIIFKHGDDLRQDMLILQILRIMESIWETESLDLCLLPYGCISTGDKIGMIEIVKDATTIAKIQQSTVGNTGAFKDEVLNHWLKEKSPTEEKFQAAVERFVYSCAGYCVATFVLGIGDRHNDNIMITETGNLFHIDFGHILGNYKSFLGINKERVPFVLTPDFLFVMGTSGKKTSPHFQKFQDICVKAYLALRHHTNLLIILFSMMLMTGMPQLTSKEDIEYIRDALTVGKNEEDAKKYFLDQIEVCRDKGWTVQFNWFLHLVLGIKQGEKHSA
Procedure: PI3Kγ binding assays were performed by Eurofins Discovery (https://www.eurofinsdiscoveryservices.com) on a fee-for-service basis. KINOMEscan™ was used to determine the dissociation constant Kd. […] Competition of the test compound with the immobilized ligand was measured via quantitative PCR (qPCR) of the DNA tag of DNA-tagged kinase. An 11-point three-fold serial dilution of each test compound was prepared in 100% DMSO at 100× final test concentration and subsequently diluted to 1× in the assay (final DMSO concentration = 1%). Dissociation constants were estimated with a standard dose-response curve using the Hill equation (Eq. 4)[71]:4 Response=Background+Signal−Background/1+KdHillslope/Dose^HillSlope, where the Hill slope was set to −1. Curves were fitted using a nonlinear least square fit with the Levenberg–Marquardt algorithm[72],[73].

[2] = system: HD-MB03 medulloblastoma cells; assay: CellTiter-Glo cell viability/proliferation assay; format: cell-based, human; settings: for pIC50: Homo sapiens, HD-MB03, 72 h, 72 h exposure, medium supplemented with FBS, read-out: IC50 (CellTiter-Glo viability, best-fit)
Procedure: HD-MBO3 Group 3 medulloblastoma cells were cultured in RPMI medium supplemented with 10% fetal bovine serum (FBS, both from Sigma-Aldrich, St. Louis, USA), 1% Penicillin-Streptomycin, and 1% GlutaMAX (both from Gibco/Thermo Fisher Scientific, Waltham, USA). The cells were maintained at 37 °C in a humidified atmosphere containing 5% CO2. […] DMSO was used as solvent control in all assays.
Cell viability was determined using CellTiter-Glo® 2.0 Cell Viability Assay (G9242, Promega, Madison, USA). About 500 cells per 20 μl were seeded in a flat bottom 384-well plate (781098, Greiner bio-one, Kremsmünster, Austria). Increasing concentrations of compounds were deposited on cells using an HP Digital Drug Dispenser (Hewlett-Packard, Palo Alto, USA) with DMSO total volume normalization. After 72 h, the CellTiter-Glo reagent was added (volume/volume) following the manufacturer’s instructions. Luminescence representing the number of viable cells was quantified with a Cytation 3 imaging reader (BioTek, Winooski, USA). […] Prism 9 software (GraphPad Software, San Diego, CA, USA) was used to calculate best-fit values of inhibitor vs. normalized response and to predict IC50.

[3] = system: PI3Kα; settings: cited from earlier work
[4] = system: PI3Kδ; settings: cited from earlier work

Compound	experimentally determined binding constant Kd [1]	further results
COc1ccc(-c2cc(C(F)(F)F)n3ncc(C#N)c3n2)cc1OC [Compound 2]	no observed binding	PI3Kγ activity in vitro (biochemical assay), in words [1]: inactive in vitro
COc1ccc(-c2nc(-c3ccc(F)cc3)no2)cc1OC [Compound 3]	no observed binding	–
COc1ccc(-c2cc(C(F)F)n3ncc(C#N)c3n2)cc1OC [Compound 4]	no observed binding	PI3Kγ activity in vitro (biochemical assay), in words [1]: inactive in vitro
COc1ccc(-c2nnc(C(C)C)s2)cc1OC [Compound 5]	no observed binding	–
COc1ccc(-c2cnc(N)cc2C)cc1OC [Compound 6]	no observed binding	–
COc1ccc(-c2cc(CCl)no2)cc1OC [Compound 7]	no observed binding	–
COc1ccc(C(=O)Nc2ccc3ccccc3c2)cc1OC [Compound 8]	no observed binding	–
COc1ccc(-c2nc(-c3ccc(F)cc3)c(-c3ccc(F)cc3)[nH]2)cc1O [Compound 9]	no observed binding	–
COc1ccc(Nc2nc(-c3ccc(Br)cc3)nc3ccccc23)cc1OC [Compound 10]	no observed binding	–
COc1ccc(-c2nnc(CCl)o2)cc1OC [Compound 11]	no observed binding	–
COc1ccc(-c2nc(CN)no2)cc1OC [Compound 12]	no observed binding	–
COc1ccc(-c2noc(-c3ccc(O)cc3)n2)cc1OC [Compound 13]	no observed binding	–
COc1ccc(-c2nc(CCl)c(C)o2)cc1OC [Compound 14]	no observed binding	–
COc1ccc(Nc2ncccc2[N+](=O)[O-])cc1OC [Compound 15]	no observed binding	–
COc1ccc(-c2cnoc2-c2cc(OC)c(OC)c(OC)c2)cc1O [Compound 16]	no observed binding	–
CC(C)n1nc(-c2cc(Cl)c(O)c(C3CC3)c2)c2c(N)ncnc21 [Compound 20]	–	pKd [1]: 6.92
CC(C)n1nc(-c2cc(C3CC3)c(O)c(C3CC3)c2)c2c(N)ncnc21 [Compound 21]	–	pKd [1]: 6.54
CC(C)n1nc(-c2cc(Cl)c(O)c(Cl)c2)c2c(N)ncnc21 [Compound 22]	–	pKd [1]: 7.89; effect on viability at 100 nM ([2]; 100 nM concentration): neither 18 nor 22 caused a significant reduction in viability; pIC50 [2]: 6.73
COc1c(OCCCN2CCOCC2)ccc2c1N=C(NC(=O)c1cnc(N)nc1)N1CCN=C21 [copanlisib, Copanlisib]	–	pIC50 [2]: 7.71; inhibitory activity against PI3Kα [3]: sub-nanomolar; inhibitory activity against PI3Kδ [4]: sub-nanomolar
